According to US4543256A, “(-)-10,1L Methylenedioxy-N-N-propylnoraporphine and methods employing it for inhibiting the effects of epileptic seizures and for prevention and treatment of duodenal ulcers” (Northeastern University, priority 1982, dated 1985):
Structures can show the parent of a compound that is named as a salt. Where two headings read alike, the source gives them in different places.

Assays:
rats [1] = assay: Stereotyped behavior of rats (rating scale; score, onset and duration); type: in vivo, rat (male Sprague-Dawley); details: for Stereotypy Score: rated one hour, maximum 18, N=6, mean ±SEM; for Duration of Effect (stereotypy): complete when scores ≤3; for Stereotypy (percent of the maximum possible score): 100%=18.0, placebo 4.4±2.5%, N=3 to 6; for stereotypy scores: NPA 3 mg/kg i.p., N=6
Description: (§1) Male Sprague-Dawley (Charles River Labs.) rats (initially 175-200 g) were housed four per cage, with free access to food and water, under controlled lighting (on 7:00 a.m. to 7:00 p.m.), constant temperature 21°-23° C. and controlled humidity (40-50%). Aporphines were administered, as described below, freshly dissolved in 1 mM citric acid mixed with 0.9% (w/v) saline (1:4, vols.); this solvent was also used as a vehicle ("placebo") control. Haloperidol was given in the same medium; 2-diethyl aminoethyl-2,2 diphenylvalerate HCl (SKF-525A) was given in saline.
Stereotyped behavior was evaluated by a trained observer according to a rating scale method reported previously (Campbell and Baldessarini, 1981a). Briefly, the ratings were as follows: 0, no stereotypy, normal locomotion; 1, discontinuous sniffing, reduced locomotion; 2, continuous sniffing, only periodic exploration; 3, continuous sniffing, mouth movements, infrequent, exploratory activity, Ratings were made each 10 min. by observation for 30 sec, typically for 60 min. (maximum score=18.0/hour).
(§2) In all experiments except those which evaluated the time-course of drug effects, rats were given an injection of vehicle and then allowed to rest for 15 min. to adapt to nonspecific arousal effects, prior to a second injection of test agent (or placebo) and immediate behavioral testing. Behavioral data were evaluated by Student's t-test and are always expressed as mean ±SEM.
Data are mean values ±SEM for N=6 rats per group given doses of each aporphine (1mg/kg/, or approximately 3 umole/kg) by orogastric intubation (P.O.), or subcutaneous (S.C.) or intraperitoneal (I.P.) injection. Stereotypy was rated for one hour as described in Methods and duration is defined as complete when scores diminished to ≤3 (out of a maximum possible score of 18).
Data are mean values ±SEM (N=4 to 8 rats per condition). […] N.D. indicates "not determined." (*) Indicates a significant difference by t-test between control and oxidase inhibitor-pretreated rats (p<0.01).
Stereotypy was rated for 60 min as described in Methods. Data are means SEM (stereotypy scores, when 18=maximum in 1 hour) for N=6 rats per group; (*) indicates p<0.0001 by t test.
Data are mean values ±SEM (N=3 to 6 rats per condition) for effects of seven aporphine compounds (R=substituents, keyed to the structure above). Full chemical names for all compounds are provided in Methods. […] Data are provided for a dose of 10 mg/kg (i.p.), although doses of 1 and 5 mg/kg were also tested.

rats [2] = assay: Locomotor (general motor) activity, electronic activity monitor; type: in vivo, rat (male Sprague-Dawley)
Description: as §1
Locomotor activity was evaluated by use of a printing electronic activity monitor (EAM, Stoelting Co., Chicago, IL) within a sound-attenuated chamber, typically for 60 min., as described previously (Stewart, Campbell, Sperk and Baldessarini, 1979, Psychopharmacology 60 281-289; Campbell and Baldessarini, 1981a, Psychopharmacology 73:219-222.
as §2
Data are mean values ±SEM (N=4 to 8 rats per condition). Animals were pretreated with SKF-525A (40 mg/kg, i.p.) or its vehicle 30 min before MDO-NPA (in the doses noted, from 0 to 3 mg/kg, i.p.). Activity was then monitored electronically for an hour after the low doses of MDO-NPA (data in counts/hour), or rated for stereotypy every 10 min for an hour after higher doses. N.D. indicates "not determined." (*) Indicates a significant difference by t-test between control and oxidase inhibitor-pretreated rats (p<0.01).
Data are mean values ±SEM (N=3 to 6 rats per condition) for effects of seven aporphine compounds (R=substituents, keyed to the structure above). Full chemical names for all compounds are provided in Methods. Ratings are expressed as percent of the maximum possible score (100%)=18.0) of stereotypy (Placebo-injected controls yielded scores of 4.4±2.5%); and as the percent of control locomotor activity (100%=430±86 counts/hr). Data are provided for a dose of 10 mg/kg (i.p.), although doses of 1 and 5 mg/kg were also tested.

gastric acid output = details: rats given cysteamine or propionitrile; previous studies; cited from earlier work
[3] = in vivo, cited from earlier work
Adenylate cyclase = Adenylate cyclase stimulation (cAMP) in rat striatal homogenates; type: biochemical; details: 50 μM; control (no addition) 2.38 ± 0.14; p < 0.01; N=4
Description: of cAMP in rat striatal homogenates; inhibition of binding of

duodenal ulcers = assay: Cysteamine-induced duodenal ulcer in the rat; details: for Duodenal Ulcer Intensity (Scale: 0-3): control 1.8; for Duodenal Ulcer Incidence (Positive/Total): control 10/12
[4] = SKF-525A 40 mg/kg i.p. alone (MDO-NPA dose 0)
[5] = 50 μg/100g s.c. once daily seven days
[6] = 100 μg/100g s.c. once daily seven days
[7] = 10 mg/kg i.p.; 100%=430±86 counts/hr; N=3 to 6

Compound: CCCC(C(=O)OCCN(CC)CC)(c1ccccc1)c1ccccc1 [SKF-525A, 2-diethyl aminoethyl-2,2 diphenylvalerate HCl, reference compound]
- Stereotypy (rats [1]; [4]): 0
- Activity (rats [2]; [4]): 422 ± 28 counts/hour

Compound: CN1C[C@H](CC#N)C[C@@H]2c3cccc4[nH]c(Cl)c(c34)C[C@H]21 [lergotrile]
- effect on output of gastric acid (gastric acid output): diminished the output of gastric acid

Compound: CN1CCc2cccc3c2[C@H]1Cc1ccc2c(c1-3)OCO2 [MDO-APO]
- Stereotypy (rats [1]; 10 mg/kg i.p.): weak and inconsistent stereotypy (not significant statistically)
- behavioral effects after oral administration (rats [1]; 1 to 5 mg/kg oral): no significant behavioral effects
- excitatory effects (rats [2]; 10 mg/kg i.p.): relatively weak and inconsistent excitatory effects
- inhibition of locomotor activity (rats [2]; 10 mg/kg i.p.): significant effect (p 0.01 by t-test) to inhibit locomotor activity

Compound: CN1CCc2cccc3c2[C@H]1Cc1ccc(O)c(O)c1-3 [APO, apomorphine, reference compound]
- Stereotypy Score (rats [1]; 1 mg/kg I.P.): 16.5 ± 2.4
- Duration of Effect (stereotypy) (rats [1]; 1 mg/kg I.P.): 72 ± 12 min
- Stereotypy Score (rats [1]; 1 mg/kg P.O.): 0
- Duration of Effect (stereotypy) (rats [1]; 1 mg/kg P.O.): 0 min
- Stereotypy Score (rats [1]; 1 mg/kg S.C.): 17.5 ± 0.4
- Duration of Effect (stereotypy) (rats [1]; 1 mg/kg S.C.): 70 ± 5 min
- dependence of duration of action on dose (rats [1]; i.p.): much less tendency for duration to increase with dose
- minimal effective dose (rats [2]; Rattus norvegicus, ip; read-out: dose producing increases in general motor activity): > 2 µmol/kg
- motor activity at lower doses (below 2 μmoles/kg) (rats [2]; i.p.): no significant effect
- duration of action [3]: short duration of action

Compound: (-) 10, 11-Butylidene-2-dioxy-N-n-propylnoraporphine. HCl [Methyl-ethyl MDO--NPA]
- Stereotypy (rats [1]; 10 mg/kg i.p.): weak stereotypic activity
- duration of stereotypic activity (rats [1]; 10 mg/kg i.p.): about 60 min
- onset of stereotypic activity delayed (rats [1]; 10 mg/kg i.p.): about 30 min
- Stereotypy (percent of the maximum possible score) (rats [1]; 10 mg/kg i.p.): 31.5 ± 1.9%

Compound: CCCN1CCc2cccc3c2[C@H]1Cc1ccc(O)c(O)c1-3 [NPA, N-n-Propylnorapomorphine, reference compound]
- Adenylate cyclase stimulation (cAMP) (Adenylate cyclase): 5.67 ± 0.28 pmol/assay
- Stereotypy Score (rats [1]; 1 mg/kg I.P.): 17.5 ± 1.0
- Duration of Effect (stereotypy) (rats [1]; 1 mg/kg I.P.): 70 ± 10 min
- Stereotypy Score (rats [1]; 1 mg/kg P.O.): 0
- Duration of Effect (stereotypy) (rats [1]; 1 mg/kg P.O.): 0 min
- Stereotypy Score (rats [1]; 1 mg/kg S.C.): 17.5 ± 0.8
- Duration of Effect (stereotypy) (rats [1]; 1 mg/kg S.C.): 72 ± 6 min
- stereotypy scores (rats [1]; controls (vehicle pretreated)): 17.4±0.2
- stereotypy scores (rats [1]; oxidase-inhibited (SKF-525A 40 mg/kg i.p.)): 17.0±0.3
- dependence of duration of action on dose (rats [1]; i.p.): much less tendency for duration to increase with dose
- duration of stereotyped behavioral effects vs other agents (rats [1]; i.p., for MDO-NPA at doses above 1 μmole/kg): about equal to, or slightly greater than that of APO
- minimal effective dose (rats [2]; Rattus norvegicus, ip, read-out: dose producing increases in general motor activity): > 2 µmol/kg
- motor activity at lower doses (below 2 μmoles/kg) (rats [2]; i.p.): no significant effect
- Duodenal Ulcer Intensity (Scale: 0-3) (duodenal ulcers; [5]): 1.1
- Duodenal Ulcer Incidence (Positive/Total) (duodenal ulcers; [5]): 2/9
- Duodenal Ulcer Intensity (Scale: 0-3) (duodenal ulcers; [6]): 0.9
- Duodenal Ulcer Incidence (Positive/Total) (duodenal ulcers; [6]): 6/9
- effect of a single high dose on duodenal ulcers (duodenal ulcers; single high dose): active
- oral bioavailability ([3]; po): poor oral bioavailability
- duration of action [3]: short duration of action

Compound: CC(C)(C)C1(O)CCN2CC3c4ccccc4CCc4cccc(c43)C2C1 (single isomer, unassigned; (+)) [(+)-butaclamol, reference compound]
- effect on the beneficial effect of NPA and MDO-NPA (duodenal ulcers; combined with NPA or MDO-NPA): reversed the beneficial effect of NPA and MDO-NPA
- effect on cysteamine-induced duodenal ulcers (duodenal ulcers; rats given cysteamine): aggravated the experimental duodenal ulcers

Compound: CCCCCC1(C)Oc2ccc3c(c2O1)-c1cccc2c1C(C3)N(CCC)CC2.Cl (single isomer, unassigned; (-)) [Methyl-pentyl-MDO--NPA, (-) 10,11-Heptylidene-2-dioxy-N-n-propylnoraporphine-HCl]
- Stereotypy (percent of the maximum possible score) (rats [1]; 10 mg/kg i.p.): 11.1 ± 5.7%
- Locomotion (percent of control locomotor activity) (rats [2]; [7]): 86.1 ± 22.3%

Compound: CC(C)C[C@H]1C(=O)N2CCC[C@H]2[C@]2(O)O[C@](NC(=O)[C@@H]3C=C4c5cccc6[nH]c(Br)c(c56)C[C@H]4N(C)C3)(C(C)C)C(=O)N12 [bromocriptine]
- effect on output of gastric acid (gastric acid output): diminished the output of gastric acid

Compound: CCCN1CCc2cccc3c2[C@H]1Cc1c([N+](=O)[O-])cc2c(c1-3)OCO2 [8-Nitro-MDO--NPA]
- Stereotypy (percent of the maximum possible score) (rats [1]; 10 mg/kg i.p.): 4.4 ± 2.5%
- Locomotion (percent of control locomotor activity) (rats [2]; [7]): 74.4 ± 9.8%
